Consider one compound from patent US20170087562A1, “METHOD FOR DETERMINING TREATMENT RESPONSE OF CELLS” (NATIONAL CHENG KUNG UNIVERSITY, priority 2015, published 2017).

Experiment [1] relates to lung cancer cells AS2. In words: Corresponding cell analysis after Taxol (cell death, proliferation inhibition/cells kill). Format: cell-based. From the text:
The moving speed of the cell can be obtained by analyzing the moving distance perpendicular to the electrode at different time points. […]. […] The treatment response includes proliferation inhibition/cells kill which are the important indicators for determining whether the chemotherapy is effective on clinical. Therefore, the conclusion of the treatment response of cells to the treatment method can be obtained fast by using electrorotation, and the treatment effect of the clinical treatment can be estimated with high reliability, so that the analysis period indeed can be substantially shorten (24 hrs v.s. 48 hrs).

Experiment [2] has as its system lung cancer cells AS2. In words: Traveling-wave dielectrophoresis moving speed of cells after Taxol. The format is cell-based. To be noted: 24 hours after treatment. An excerpt:
The principle of the traveling-wave dielectrophoresis is similar with the electrorotation. The test cells can be pushed away by the electrodes when applying a negative electrophoresis force (nDEP) through two set of parallel electrode 13 and 14, so that the influence on the moving condition resulting from the friction between the test cells and chip surface can be reduced. The two set of parallel electrode 13 and 14 individually include several electrodes having a width ranged from 0.1 to 1000 microns, preferably 0.5 to 100 microns, for example 1 micron, 20 microns, 40 microns, 50 microns, or 60 microns; the width of the intervals ranged from 0.1 to 1000 microns, preferably 0.5 to 100 microns, for example 1 micron, 20 microns, 40 microns, 50 microns, or 60 microns. Moreover, in this uneven electric field, the electric signal has a periodic variation in value and direction (such as a sine wave), for example, 360/N of sine wave signal are subsequently applied to the parallel electrodes, wherein N is preferably equal to 4, so that the sine wave of the electrodes have intervals of 90 degrees from each other, but N is not limited thereto. The wave signal of each electrode continuously changes the phase thereof by time to provide the source of the moving force for traveling-wave electrophoresis. […]

Structures are written as SMILES.

Regarding `CC(=O)O[C@H]1C(=O)[C@@]2(C)[C@H]([C@H](OC(=O)c3ccccc3)[C@]3(O)C[C@H](OC(=O)[C@H](O)[C@@H](NC(=O)c4ccccc4)c4ccccc4)C(C)=C1C3(C)C)[C@]1(OC(C)=O)CO[C@@H]1C[C@@H]2O` [Taxol], the proliferation inhibition/cells kill entry in experiment [1] (24 hours) and in experiment [1] (48 hours) was “obvious” throughout. Further, the cell death result in experiment [1] (48 hours) is reported as “obvious”. The “moving speed versus placebo (only DMSO)” value in experiment [2] was “much slower”.
